This data set has as its system rodent carcinogenicity bioassays, tumor incidence. Briefly: CCRIS carcinogenicity studies. Put shortly:
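Archive of carcinogenicity, mutagenicity, tumor promotion and tumor inhibition results drawn from journals, NCI reports and other sources, expert-reviewed; covers 1985-2011 and is no longer updated.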

Calls of active or inactive are those of the source. No rule for the calls is given here.

Drawing on PubChem BioAssay AID1259411 (Chemical Carcinogenesis Research Information System (CCRIS), 2018), this text covers carcinogen call for eight compounds.

With `CCSCC[C@H](N)C(=O)O`, the carcinogen call reads like this: (Species: RAT, Strain/Sex: SPRAGUE-DAWLEY/MALE,FEMALE, Route: ORAL, Dose: 0.25% IN DIET FOR 38 WK (AVE), Tumor Site: Type of Lesion: LIVER: CARCINOMA) “active; positive”; (Species: RAT, Strain/Sex: SPRAGUE-DAWLEY/MALE, Route: ORAL, Dose: 0, 0.05% IN CHOLINE-FREE DIET FOR 12 MO (STUDY DURATION: 12 MO), Tumor Site: Type of Lesion: LIVER: HEPATOCELLULAR CARCINOMA) “active; positive”; (Species: RAT, Strain/Sex: SPRAGUE-DAWLEY/MALE, Route: ORAL, Dose: 0, 0.1% IN CHOLINE-FREE DIET FOR 12 MO (STUDY DURATION: 12 MO)) “inactive; negative”; (Species: RAT, Strain/Sex: STRAIN-CD/MALE, Route: ORAL, Dose: 0.2% IN NONTOXIC PEANUT MEAL DIET FOR 380 D, Tumor Site: Type of Lesion: LIVER) “active; positive”.
For `CCn1cc(C(=O)O)c(=O)c2cc(F)c(N3CCNCC3)cc21`, where the note is “Species: Rat, Strain/Sex: F344/Male (15/Group), Route: Oral, Dose: 0, 750, 1500 mg/kg daily for 3 wks after 2/3rd partial hepatectomy, from 2 wks after carcinogen dosing, 500 ppm phenobar, Tumor Site: Type of Lesion: Liver”, the carcinogen call is “inactive; negative”.
Regarding `CCCCC(CC)CO` (stereo not drawn), the carcinogen call runs as follows: (Species: MOUSE, Strain/Sex: B6C3F1/FEMALE, Route: GAVAGE, Dose: 0, 50, 200, 750 MG/KG/D 5 D/WK FOR 18 MO (STUDY DURATION: 18 MO), Dose: 0, 50, 200, 750 MG/KG/D 5 D/WK FOR 18 MO (STUDY DURATION: 18 MO)) “inactive; negative”; (Species: MOUSE, Strain/Sex: B6C3F1/MALE, Route: GAVAGE, Dose: 0, 50, 200, 750 MG/KG/D 5 D/WK FOR 18 MO (STUDY DURATION: 18 MO), Dose: 0, 50, 200, 750 MG/KG/D 5 D/WK FOR 18 MO (STUDY DURATION: 18 MO)) “inactive; negative”; (Species: RAT, Strain/Sex: F344/FEMALE, Route: GAVAGE, Dose: 0, 50, 150, 500 MG/KG/D 5 D/WK FOR 24 MO (STUDY DURATION: 24 MO), Dose: 0, 50, 150, 500 MG/KG/D 5 D/WK FOR 24 MO (STUDY DURATION: 24 MO)) “inactive; negative”; (Species: RAT, Strain/Sex: F344/MALE, Route: GAVAGE, Dose: 0, 50, 150, 500 MG/KG/D 5 D/WK FOR 24 MO (STUDY DURATION: 24 MO), Dose: 0, 50, 150, 500 MG/KG/D 5 D/WK FOR 24 MO (STUDY DURATION: 24 MO)) “inactive; negative”.
On to `OC1c2cccc3c4ccccc4c4c5ccccc5cc(c4c23)C1O` (stereo not drawn), for which, for the setting “Species: MOUSE, Strain/Sex: SWISS/FEMALE, Route: DERMAL, Dose: 0, 1, 4 NMOL IN 100 µL ACETONE 2/WK FOR 40 WK (STUDY DURATION: 48 WK), Dose: 0, 1, 4 NMOL IN 100 µL ACETONE 2/WK FOR 40 WK (STUDY DURATION: 48 WK)”, the carcinogen call was “inactive; negative”.
In the case of `ClC1=CC(c2cc(Cl)ccc2Cl)=C(Cl)[C@H]2O[C@@H]12`, the carcinogen call is “inactive; negative” (Species: MOUSE, Strain/Sex: STRAIN-A/FEMALE, Route: INTRAPERITONEAL, Dose: 0, 0.1, 0.2 UMOL/UL OF DMSO 5, 10 AND 20 µL GIVEN ON DAYS 4, 8 AND 15 AFTER BIRTH, RESPECTIVELY (STUDY DURATION: 28 WK), Dose: 0, 0.1, 0.2 UMOL/UL OF DMSO 5, 10 AND 20 µL GIVEN ON DAYS 4, 8 AND 15 AFTER BIRTH, RESPECTIVELY (STUDY DURATION: 28 WK)) and “inactive; negative” (Species: MOUSE, Strain/Sex: STRAIN-A/MALE, Route: INTRAPERITONEAL, Dose: 0, 0.1, 0.2 UMOL/UL OF DMSO 5, 10 AND 20 µL GIVEN ON DAYS 4, 8 AND 15 AFTER BIRTH, RESPECTIVELY (STUDY DURATION: 28 WK), Dose: 0, 0.1, 0.2 UMOL/UL OF DMSO 5, 10 AND 20 µL GIVEN ON DAYS 4, 8 AND 15 AFTER BIRTH, RESPECTIVELY (STUDY DURATION: 28 WK)).
With `CCOC(OCC)C(=O)c1ccccc1`, the carcinogen call reads like this: (Species: MOUSE, Strain/Sex: C3H/HEJ/MALE, Route: DERMAL, Dose: 0, 11.3 MG AS A 50% DILUTION IN ACETONE 3/WK FOR LIFESPAN (STUDY DURATION: LIFESPAN)) “inactive; negative”; (Species: MOUSE, Strain/Sex: C3H/HEJ/MALE, Route: DERMAL, Dose: 0, 25 MG UNDILUTED 3/WK FOR LIFESPAN (STUDY DURATION: LIFESPAN)) “inactive; negative”.
Turning to `N#Cc1c(Cl)cccc1Cl`, the carcinogen call reads like this: (Species: MICE, Strain/Sex: SWISS/MALE, Route: INTRAPERITONEAL, Dose: 2 PPM (0.0005MG) 1/3 D FOR 13 TIMES (STUDY DURATION: 375 D), Tumor Site: Type of Lesion: LYMPHATIC SYSTEM: HISTIOCYTIC LYMPHOMA, PLASMA CELL LYMPHOMA, LIVER: HEPATOCELLULAR CARCINOMA) “active; positive”; (Species: MICE, Strain/Sex: SWISS/MALE, Route: SUBCUTANEOUS, Dose: 2 PPM (0.0005MG) 1/3 D FOR 13 TIMES (STUDY DURATION: 375 D), Tumor Site: Type of Lesion: LYMPHATIC SYSTEM: PLASMA CELL LYMPHOMA, LUNG: CARCINOMA, BODY CAVITY: MESOTHELIOMA, LIVER: HEPATOCELLULAR CARCINOMA, Tumor Site: Type of Lesion: LYMPHATIC SYSTEM: PLASMA CELL LYMPHOMA, LUNG: CARCINOMA, BODY CAVITY: MESOTHELIOMA, LIVER: HEPATOCELLULAR CARCINOMA) “active; positive”.
With `CC(O)CNC(=O)N(CCCl)N=O` (stereo not drawn), the carcinogen call is, setting by setting: (Species: RAT, Strain/Sex: F344/FEMALE, Route: ORAL, Dose: 0, 18 MG/L IN DRINKING WATER 5 D/WK FOR 30 WK (STUDY DURATION: LIFETIME)) “inactive; negative”; (Species: RAT, Strain/Sex: F344/MALE, Route: ORAL, Dose: 0, 18 MG/L IN DRINKING WATER 5 D/WK FOR 30 WK (STUDY DURATION: LIFETIME), Tumor Site: Type of Lesion: LIVER: TUMOR, LUNG: TUMOR) “active; positive”.
